Experimental findings from PubChem BioAssay AID200 (DTP/NCI, 2004) are described below.

The subject of this assay is B6C3F1 mice, B16 melanoma ip, median survival T/C. As to the kind of experiment: NCI In Vivo Anticancer Drug Screen. Data for tumor model B16 Melanoma (intraperitoneal) in B6C3F1 mice. The settings on record: endpoint: median survival time, higher = longer survival. As to the method:
The antitumor activity of compounds was measured in mice bearing transplantable tumors. Survival or tumor size were measured and the results are expressed as the measurement made in the treated group (T) divided by the measurement made in the vehicle treated control group (C). The tumor model used in this assay is B16 Melanoma (intraperitoneal) in B6C3F1 mice

Setting [1] is: dose: 12.5 mg/kg/injection, schedule: Q01DX009 (ip), vehicle: saline with Tween-80.
The mark [2] stands for this setting: dose: 25.0 mg/kg/injection, schedule: Q01DX009 (ip), vehicle: saline with Tween-80.
Where [3] appears, read: dose: 3.12 mg/kg/injection, schedule: Q01DX009 (ip), vehicle: saline with Tween-80.
Where [4] appears, read: dose: 6.25 mg/kg/injection, schedule: Q01DX009 (ip), vehicle: saline with Tween-80.
Where [5] appears, read: dose: 50.0 mg/kg/injection, schedule: Q01DX009 (ip), vehicle: saline with Tween-80.
Where [6] appears, read: dose: 100.0 mg/kg/injection, schedule: Q01DX009 (ip), vehicle: saline with Tween-80.
Setting [7] is: dose: 200.0 mg/kg/injection, schedule: Q01DX009 (ip), vehicle: saline with Tween-80.
Where [8] appears, read: dose: 100.0 mg/kg/injection, schedule: Q01DX009 (ip), vehicle: saline.
Setting [9] is: dose: 200.0 mg/kg/injection, schedule: Q01DX009 (ip), vehicle: saline.
Where [10] appears, read: dose: 400.0 mg/kg/injection, schedule: Q01DX009 (ip), vehicle: saline.
The mark [11] stands for this setting: dose: 6.25 mg/kg/injection, schedule: Q01DX009 (ip), vehicle: Klucel (hydroxypropylcellulose) (HPC).
Where [12] appears, read: dose: 12.5 mg/kg/injection, schedule: Q01DX009 (ip), vehicle: Klucel (hydroxypropylcellulose) (HPC).
[13] abbreviates: dose: 25.0 mg/kg/injection, schedule: Q01DX009 (ip), vehicle: Klucel (hydroxypropylcellulose) (HPC).
[14] abbreviates: dose: 50.0 mg/kg/injection, schedule: Q01DX009 (ip), vehicle: Klucel (hydroxypropylcellulose) (HPC).

“And” between values parts separate entries of the source, which are not always exact repeats. Equal entries are not always repeated. Inconclusive results and toxic doses are left out. Where a SMILES comes first, the peptide text is derived from it.

Regarding `C=C1C(=O)OC2/C=C(\CO)C(OC(C)=O)CC(O)/C(C)=C/C(OC(=O)C(C)CC)C12` (stereo unspecified), the T/C (dose: 0.2 mg/kg/injection, schedule: Q01DX009 (ip), vehicle: Klucel (hydroxypropylcellulose) (HPC)) was 96 % of control; the T/C (dose: 0.39 mg/kg/injection, schedule: Q01DX009 (ip), vehicle: Klucel (hydroxypropylcellulose) (HPC)) is 103 % of control; the T/C (dose: 0.78 mg/kg/injection, schedule: Q01DX009 (ip), vehicle: Klucel (hydroxypropylcellulose) (HPC)) is 89 % of control and 103 % of control; the T/C (dose: 1.56 mg/kg/injection, schedule: Q01DX009 (ip), vehicle: Klucel (hydroxypropylcellulose) (HPC)) is 110 % of control and 100 % of control.
Consider `C=C(C)C(=O)OC1CC(C)(O)C2(O)CCC(C)(/C=C3\OC(=O)C(COC(C)=O)=C31)O2` (stereo unspecified), for which the T/C was 96 % of control (dose: 0.62 mg/kg/injection, schedule: Q01DX009 (ip), vehicle: distilled water + Tween-80 + alcohol); 105 % of control (dose: 1.25 mg/kg/injection, schedule: Q01DX009 (ip), vehicle: distilled water + Tween-80 + alcohol); 92 % of control (dose: 2.5 mg/kg/injection, schedule: Q01DX009 (ip), vehicle: distilled water + Tween-80 + alcohol); 89 % of control (dose: 5.0 mg/kg/injection, schedule: Q01DX009 (ip), vehicle: distilled water + Tween-80 + alcohol).
Turning to `CC(=O)Nc1ccc(/C=N/Nc2ccc([N+](=O)[O-])cn2)cc1`, the T/C was 89 % of control under setting [1] and 89 % of control under setting [2].
Take `N#Cc1nc(C#N)c(Sc2ccccc2)c(Sc2ccccc2)c1Sc1ccccc1`: the T/C under setting [3] was 104 % of control; the T/C (dose: 3.13 mg/kg/injection, schedule: Q01DX009 (ip), vehicle: saline with Tween-80) is 101 % of control; the T/C under setting [4] was 98 % of control and 102 % of control; the T/C under setting [1] is 93 % of control and 94 % of control; the T/C under setting [2] was 101 % of control; the T/C under setting [5] was 97 % of control and 98 % of control. For the same molecule, the T/C under setting [6] was 101 % of control and 104 % of control.
For the molecule `CCOC(=O)c1c(C)c(C(=O)OCC)n(CC)c1C=O`, the T/C under setting [5] was 86 % of control, the T/C under setting [6] was 89 % of control and the T/C under setting [7] is 93 % of control.
On to `CCC(N)C(=O)NCC(=O)NCC(=O)O` (stereo unspecified) (HELM PEPTIDE1{[CCC(N)C(=O)[*:2]].G.G}$$$$V2.0), for which the T/C is 105 % of control under setting [8], 108 % of control under setting [9] and 109 % of control under setting [10].
Take `CC(C)([NH-])CO.CC(C)([NH-])CO.[Cl][Cd][Cl]`: the T/C reads like this: (dose: 0.31 mg/kg/injection, schedule: Q01DX009 (ip), vehicle: saline with Tween-80) 90 % of control; (dose: 0.63 mg/kg/injection, schedule: Q01DX009 (ip), vehicle: saline with Tween-80) 89 % of control; (dose: 1.25 mg/kg/injection, schedule: Q01DX009 (ip), vehicle: saline with Tween-80) 87 % of control.
Turning to `ClCc1ccc(Oc2ccc(CCl)cc2)cc1`, the T/C by setting is: (dose: 3.12 mg/kg/injection, schedule: Q01DX009 (ip), vehicle: Klucel (hydroxypropylcellulose) (HPC)) 101 % of control; under setting [11], 98 % of control; under setting [12], 107 % of control; under setting [13], 112 % of control; under setting [14], 93 % of control.
Take `CN(C)N=Nc1cccc2c1N(C)c1ccc(Cl)cc1S2`: the T/C (dose: 6.25 mg/kg/injection, schedule: Q01DX009 (ip), vehicle: other) was 109 % of control; the T/C (dose: 12.5 mg/kg/injection, schedule: Q01DX009 (ip), vehicle: other) was 108 % of control; the T/C (dose: 25.0 mg/kg/injection, schedule: Q01DX009 (ip), vehicle: other) is 103 % of control; the T/C (dose: 50.0 mg/kg/injection, schedule: Q01DX009 (ip), vehicle: other) was 104 % of control; the T/C (dose: 100.0 mg/kg/injection, schedule: Q01DX009 (ip), vehicle: other) was 89 % of control.
As for `O=C1CCCCCC2=NC12` (stereo unspecified), the T/C under setting [11] was 95 % of control, the T/C under setting [12] was 91 % of control, the T/C under setting [13] is 87 % of control and the T/C under setting [14] is 98 % of control.
With `O=Cc1ccc(O)c(O)c1`, the T/C reads like this: under setting [4], 100 % of control; under setting [1], 87 % of control; (dose: 12.5 mg/kg/injection, schedule: Q01DX009 (ip), vehicle: saline) 97 % of control; under setting [2], 94 % of control and 97 % of control; (dose: 25.0 mg/kg/injection, schedule: Q01DX009 (ip), vehicle: saline) 99 % of control; (dose: 25.0 mg/kg/injection, schedule: Q01DX009 (ip), vehicle: water) 112 % of control and 100 % of control. The T/C reads like this: under setting [5], 93 % of control; (dose: 50.0 mg/kg/injection, schedule: Q01DX009 (ip), vehicle: saline) 89 % of control; (dose: 50.0 mg/kg/injection, schedule: Q01DX009 (ip), vehicle: water) 112 % of control and 90 % of control; under setting [6], 89 % of control; under setting [8], 96 % of control; (dose: 100.0 mg/kg/injection, schedule: Q01DX009 (ip), vehicle: water) 95 % of control and 96 % of control. The T/C was 89 % of control under setting [7]; 95 % of control under setting [9]; 92 % of control (dose: 400.0 mg/kg/injection, schedule: Q01DX009 (ip), vehicle: saline with Tween-80); 104 % of control under setting [10].
`O=C1C=C2C(=CCOC2O)O1` (stereo unspecified): the T/C (dose: 0.25 mg/kg/injection, schedule: Q01DX009 (ip), vehicle: Klucel (hydroxypropylcellulose) (HPC)) is 95 % of control and 97 % of control; the T/C (dose: 0.5 mg/kg/injection, schedule: Q01DX009 (ip), vehicle: Klucel (hydroxypropylcellulose) (HPC)) is 94 % of control and 98 % of control; the T/C (dose: 1.0 mg/kg/injection, schedule: Q01DX009 (ip), vehicle: Klucel (hydroxypropylcellulose) (HPC)) was 99 % of control and 100 % of control; the T/C (dose: 2.0 mg/kg/injection, schedule: Q01DX009 (ip), vehicle: Klucel (hydroxypropylcellulose) (HPC)) was 97 % of control; the T/C (dose: 4.0 mg/kg/injection, schedule: Q01DX009 (ip), vehicle: Klucel (hydroxypropylcellulose) (HPC)) is 91 % of control.
For the molecule `C=C1C(=O)OC2/C=C(\CO)CC/C=C(\CO)CC(OC(=O)C(C)C)C12` (stereo unspecified), the T/C (dose: 3.75 mg/kg/injection, schedule: Q01DX009 (ip), vehicle: Klucel (hydroxypropylcellulose) (HPC)) is 103 % of control.
With `COC(C(=O)C(O)C(C)O)C1CC2C=C3C=C(OC4CC(OC5CC(O)C(OC)C(C)O5)C(OC(C)=O)C(C)O4)C(C)C(=O)C3=C(O)C2=C(O)C1OC1CC(OC2CC(OC3CC(C)(O)C(OC(=O)C(C)C)C(C)O3)C(O)C(C)O2)C(O)C(C)O1` (stereo unspecified), for the setting “dose: 62.5 micrograms/kg/injection, schedule: Q01DX009 (ip), vehicle: saline”, the T/C is 155 % of control.
With `CC[C@@]1(O)C[C@H](OC2CC(N(C)C)C(OC3CC(O)C(OC4CCC(=O)C(C)O4)C(C)O3)C(C)O2)c2c(cc3c(c2O)C(=O)c2c(O)ccc(O)c2C3=O)[C@H]1C(=O)OC` (stereo partly specified), the T/C (dose: 0.25 mg/kg/injection, schedule: Q01DX009 (ip), vehicle: water) is 100 % of control; the T/C (dose: 0.5 mg/kg/injection, schedule: Q01DX009 (ip), vehicle: water) is 120 % of control; the T/C (dose: 1.0 mg/kg/injection, schedule: Q01DX009 (ip), vehicle: water) is 156 % of control.
With `O=NN(CCF)C(=O)NC1C(O)CCCC1O` (stereo unspecified), the T/C is, setting by setting: (dose: 7.5 mg/kg/injection, schedule: Q01DX001 (ip), vehicle: saline) 198 % of control; (dose: 15.0 mg/kg/injection, schedule: Q01DX001 (ip), vehicle: saline) 222 % of control; (dose: 30.0 mg/kg/injection, schedule: Q01DX001 (ip), vehicle: saline) 350 % of control; (dose: 60.0 mg/kg/injection, schedule: Q01DX001 (ip), vehicle: saline) 350 % of control.
As for `O=C1C2CC=CCC2C(=O)N1SC(Cl)(Cl)Cl` (stereo unspecified), the T/C is, setting by setting: (dose: 0.78 mg/kg/injection, schedule: Q01DX009 (ip), vehicle: saline with Tween-80) 90 % of control and 97 % of control; (dose: 1.56 mg/kg/injection, schedule: Q01DX009 (ip), vehicle: saline with Tween-80) 97 % of control; under setting [3], 89 % of control; under setting [4], 93 % of control; under setting [1], 88 % of control; under setting [2], 89 % of control.
